Measured values reported in ChEMBL document CHEMBL1201862, “PubChem BioAssay data set” (2004).
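Five compound concentrations were applied to cells in 96-well plates for 48 hours; endpoints were derived by simple linear interpolation of the resulting dose-response curve. The concentration for 50% growth inhibition is given as GI50.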 Active and inactive are the calls of the source. Cut-off read from the data, not from the text of the source: active = GI50 up to about 1.1 µM and inactive = higher. *1 amine or outer side, *2 acyl side, *3 side chain or, on linkers, in order; H or OH if unused. Where a SMILES comes first, the peptide text is derived from it. Bridges are numbered along the chain shown (N, C = ends). Roman numbers before positions name the chains, in order. [ ]: non-standard residue; d: D form. Actinocin(1to9) = Cc1c2oc3c(C)ccc(C(=O)[*:2])c3nc-2c(C(=O)[*:1])c(N)c1=O; NMeV = CN[CH](C(=O)O)C(C)C; Sar = CNCC(=O)O

Legend:
Experiment in all cases: growth of human tumour cells (NCI), 48 h
CAKI-1 = system: CAKI-1
K562 = system: K562
NCI-H460 = system: NCI-H460
SNB-19 = system: SNB-19
UACC-257 = system: UACC-257
Malme-3M = system: Malme-3M
HL-60 = system: HL-60
ACHN = system: ACHN
IGROV-1 = system: IGROV-1
UACC-62 = system: UACC-62
NCI-H226 = system: NCI-H226
KM-20L2 = system: KM-20L2
UO-31 = system: UO-31
COLO 205 = system: COLO 205
SK-MEL-2 = system: SK-MEL-2
EKVX = system: EKVX
T47D = system: T47D
Hs-578T = system: Hs-578T
NCI/ADR-RES = system: NCI/ADR-RES
MDA-N = system: MDA-N

SMILES	GI50 (CAKI-1)	GI50 (K562)	GI50 (NCI-H460)	GI50 (SNB-19)	GI50 (UACC-257)	GI50 (Malme-3M)	GI50 (HL-60)	GI50 (ACHN)	GI50 (IGROV-1)	GI50 (UACC-62)	GI50 (NCI-H226)	GI50 (KM-20L2)	GI50 (UO-31)	GI50 (COLO 205)	GI50 (SK-MEL-2)	GI50 (EKVX)	GI50 (T47D)	GI50 (Hs-578T)	GI50 (NCI/ADR-RES)	GI50 (MDA-N)
N#C/C(=C\c1ccccc1O)C(N)=O	54.8 µM (inactive)	51.2 µM (inactive)	55.7 µM (inactive)	71.8 µM (inactive)	50.7 µM (inactive)	> 100 µM (inactive)	20.1 µM (inactive)	48.9 µM (inactive)	> 100 µM (inactive)	50.1 µM (inactive)	46.8 µM (inactive)	> 100 µM (inactive)	43.6 µM (inactive)	61.8 µM (inactive)	62.1 µM (inactive)	59.4 µM (inactive)				
CC(N)Cc1ccc(C(=O)Cl)cc1 (centres undefined)	> 100 µM (inactive)	> 100 µM (inactive)	> 100 µM (inactive)		> 100 µM (inactive)	> 100 µM (inactive)		> 100 µM (inactive)	> 100 µM (inactive)	> 100 µM (inactive)		> 100 µM (inactive)		> 100 µM (inactive)	> 100 µM (inactive)	> 100 µM (inactive)				
CN(C)C(=S)/N=c1\ss/c(=N\S(=O)(=O)c2ccccc2)n1C	> 100 µM (inactive)	> 100 µM (inactive)	> 100 µM (inactive)	> 100 µM (inactive)	> 100 µM (inactive)	> 100 µM (inactive)	> 100 µM (inactive)	> 100 µM (inactive)	> 100 µM (inactive)	> 100 µM (inactive)	> 100 µM (inactive)	> 100 µM (inactive)	> 100 µM (inactive)		> 100 µM (inactive)	> 100 µM (inactive)				
Nc1ccn(CCOC(=O)c2ccccc2)c(=O)n1	> 100 µM (inactive)	> 100 µM (inactive)	> 100 µM (inactive)		> 100 µM (inactive)	> 100 µM (inactive)	> 100 µM (inactive)	> 100 µM (inactive)	> 100 µM (inactive)	> 100 µM (inactive)	> 100 µM (inactive)	> 100 µM (inactive)	> 100 µM (inactive)	> 100 µM (inactive)	> 100 µM (inactive)	> 100 µM (inactive)				
CCOC(=O)N1C(c2ccccc2)C=CC(c2ccccc2)N1C(=O)OCC (centres undefined)	> 100 µM (inactive)	> 100 µM (inactive)	> 100 µM (inactive)	> 100 µM (inactive)	> 100 µM (inactive)	> 100 µM (inactive)		> 100 µM (inactive)	> 100 µM (inactive)	> 100 µM (inactive)		> 100 µM (inactive)		> 100 µM (inactive)	> 100 µM (inactive)	> 100 µM (inactive)				
OCCc1cnco1		> 100 µM (inactive)	> 100 µM (inactive)	> 100 µM (inactive)			> 100 µM (inactive)		> 100 µM (inactive)	> 100 µM (inactive)	> 100 µM (inactive)	> 100 µM (inactive)		> 100 µM (inactive)		> 100 µM (inactive)				
CN1C(=O)C2C3C=C4c5ccccc5N(c5ccccc5)C4(C2C1=O)[C@H]1C(=O)N(C)C(=O)[C@@H]31 (some centres undefined)		> 100 µM (inactive)	> 100 µM (inactive)	> 100 µM (inactive)	> 100 µM (inactive)	> 100 µM (inactive)	> 100 µM (inactive)	> 100 µM (inactive)		> 100 µM (inactive)	> 100 µM (inactive)	> 100 µM (inactive)	> 100 µM (inactive)	> 100 µM (inactive)	> 100 µM (inactive)	> 100 µM (inactive)				
[N-]=[N+]=NC(CBr)c1cn([C@H]2C[C@H](O)[C@@H](CO)O2)c(=O)[nH]c1=O (some centres undefined)	> 100 µM (inactive)	> 100 µM (inactive)	> 100 µM (inactive)	> 100 µM (inactive)		> 100 µM (inactive)	> 100 µM (inactive)	> 100 µM (inactive)	> 100 µM (inactive)	> 100 µM (inactive)	> 100 µM (inactive)	> 100 µM (inactive)	> 100 µM (inactive)	> 100 µM (inactive)	> 100 µM (inactive)	> 100 µM (inactive)				
CCC(C)C1NC(=O)C(NC(=O)c2c3nc4c(C(=O)NC5C(=O)NC(C(C)C)C(=O)N6CCCC6C(=O)N(C)CC(=O)N(C)C(C(C)C)C(=O)OC5C)ccc(C)c4oc-3c(C)c(=O)c2N)C(C)OC(=O)C(C(C)C)N(C)C(=O)CN(C)C(=O)C2CCCN2C1=O (centres undefined) (I: TIP[Sar][NMeV] / II: TVP[Sar][NMeV]; ester I:1-I:C, II:1-II:C; linker I:N-II:N via Actinocin(1to9); configuration not given here)	0.00378 µM (active)	< 0.0001 µM (active)	< 0.0001 µM (active)	< 0.0001 µM (active)	0.00119 µM (active)	0.000689 µM (active)	0.000513 µM (active)	0.000647 µM (active)	0.00393 µM (active)	0.00589 µM (active)	0.0101 µM (active)		0.0787 µM (active)	< 0.0001 µM (active)	0.00172 µM (active)	0.00377 µM (active)	0.00183 µM (active)	0.00546 µM (active)	0.156 µM (active)	0.000135 µM (active)
